Measurements taken from US20260355150A1 (Sumitomo Pharma America, Inc., priority 2022, published 2026).

Assays:
[1] = Rat learned helplessness model (active avoidance); details: helpless rats; for escape failures (Mean ± SEM) / inter-trial interval (ITI) crossings (Mean ± SEM): 32 mg/kg, po bid
Description: In this model, rats are first exposed to inescapable foot shock to induce a helpless state which is then expressed by a subsequent failure to learn to avoid escapable foot shocks (active avoidance).
Helplessness was induced on Day 1 in 5 of the groups by exposing animals to inescapable foot shocks delivered through an electrified stainless steel grid floor every 15 seconds for 1 h. […] Treatment continued on days 2-5 with all subjects receiving test agent or vehicle twice daily (AM and PM). Active avoidance was tested 60 min after the morning dose on Days 3, 4 and 5. All rats were tested in a 2-compartment active avoidance chamber where delivery of foot shock was signaled by a light cue. The test session began with 5 min of free exploration after which 30 stimulus-shock trials were delivered during a 15 min period. Each trial lasted 30 seconds with an initial 24 second rest period, followed by a 6 second light cue presentation with foot shock delivered during the last 3 seconds. […] Failure to avoid full delivery of the foot shock (i.e., failing to cross during 3 second shock presentation) was considered an escape failure. Crossings to the opposite compartment of the shuttle box during the 24 second rest period were recorded as inter-trial interval (ITI) crossings. Escape failures and ITI crossings were analyzed by two way repeated measures ANOVA with treatment as a main factor and test session (i.e., day) as the repeated measure.

[2] = literature (Ardalan 2017; Cryan 2005; Koike 2014); acute treatment; cited from earlier work
[3] = Rat forced swim test, second study (one administration 24 h prior to testing); details: 10 mg/kg, ip, positive control, of 60 observations in 5 min, p < 0.05 vs vehicle (footnote a)
Description: In both procedures, rats were pre-exposed to a 15 min swim session (day 0) prior to the 5 min FST session which was conducted 24 h later (day 1).
In the second study, adult, male Sprague-Dawley rats (190-234 g, n=10 per group) were dosed on only one occasion immediately after the pre-swim i.e., 24 h prior to testing. […] Behavior was quantified during the 5 min test session using a time sampling technique where the actual behavior observed, i.e., immobility, climbing or swimming, was recorded every 5 seconds for a total of 60 observations. Results were analyzed by one way ANOVA followed by Dunnett's post hoc comparisons.

| Compound | escape failures, significance ([1]; 32 mg/kg po bid) | escape failures (Mean ± SEM) ([1]; Day 3) | inter-trial interval (ITI) crossings (Mean ± SEM) ([1]; Day 3) | inter-trial interval (ITI) crossings (Mean ± SEM) ([1]; Day 4) | escape failures (Mean ± SEM) ([1]; Day 4, p < 0.05 vs helpless/vehicle (footnote a)) | inter-trial interval (ITI) crossings (Mean ± SEM) ([1]; Day 5) | escape failures (Mean ± SEM) ([1]; Day 5, p < 0.05 vs helpless/vehicle (footnote a)) | antidepressant-like effects in this dosing protocol (rat FST, dosed 24 h prior to testing) [2] | Immobility frequency (Mean ± SEM) [3] |
| --- | --- | --- | --- | --- | --- | --- | --- | --- | --- |
| CN(C)CCCN1c2ccccc2CCc2ccccc21 [Imipramine] | significant reduction in escape failures | 3 ± 1 | 17 ± 2 | 12 ± 2 | 3 ± 2^a | 15 ± 2 | 2 ± 1^a |  |  |
| CNC1(c2ccccc2Cl)CCCCC1=O (stereo not drawn) [Ketamine] |  |  |  |  |  |  |  | antidepressant-like effects | 22.9 ± 3.5^a |
